Assay results: patent EP0405436B1, “Dihetero nitrogen-containing cycloheteroethanoanthracene derivatives as antipsychotic agents” (G.D. Searle & Co., priority 1989, dated 1991)
Read-outs that look alike come from different tables or passages of the source. One block for each molecule: values may come before it.

Legend:
[1] = test system: apomorphine-induced climbing; experiment: Blockade of apomorphine-induced climbing; format: in vivo, Swiss-Webster mice; settings: Mus musculus; mice, i.p. or s.c. pretreatment; 2 mg/kg apomorphine s.c.; rated at 10 and 20 minutes; read-out: Blockade of Apomorphine-induced Climbing ED₅₀
Procedure: Compounds of the invention were evaluated for their ability to block apomorphine-induced climbing. The evaluation of the compounds followed the method outlined by Protais [Psychopharmacol., 50, 1-6, 1976]. Swiss-Webster mice, weighing 20-25 g, are pretreated with the compounds of the invention by i.p. or s.c. administration at various times before 2 mg/kg apomorphine is administered s.c in a volume of 1 ml/kg. All test compounds are administered in a volume of 10 ml/kg. Mice are rated at 10 and 20 minutes after apomorphine administration using the following rating scale: (0) forepaws on the floor, (1) forefeet holding the bars, and (2) four paws holding bars. Dose-response curves are analyzed by a computerized Finney assay [Statistical Methods in Biological Assays, 2nd Edn., Hatner Pub. Co., New York (1964)].

sigma receptor = sigma receptor (Rattus norvegicus, UniProt Q9R0C9); format: binding, male Sprague-Dawley rats
Procedure: To determine the effects of the compounds in a sigma receptor assay, crude membrane preparations were prepared as follows. Brains from male Sprague-Dawley rats were homogenized in 10 volumes (wt/vol) of 0.32 M sucrose, using a Polytron grinder. The homogenate was centrifuged at 900 X G for 10 minutes at 4°C. The supernatant was collected and centrifuged at 22,000 X g for 20 minutes at 4°C. The pellet was resuspended in 10 volumes of 50 mM Tris/HCl buffer (pH 7.4) and centrifuged at 22,000 X g for 20 minutes at 4°C. The pellet was resuspended in 5 mM Tris/HCl buffer (pH 7.4) to give a final concentration of 250 mg/ml of the crude material. Incubation tubes were prepared in triplicate and contained 0.1 ml of tissue suspension, 2 nM of [³H]-(+)-1-propyl-3-(3-hydroxyphenyl)piperidine {[³H]-3-(+)-PPP}, and varying concentrations of the displacing ligand (0.1-1000 nM) in a final volume of 0.5 ml. After a 1 hr incubation at room temperature, the contents of the test tubes were filtered through GS filter paper which had been presoaked for at least 2 hours in 0.05% polyethyleneimine. The test tubes were rinsed three times with Tris/HCl buffer. Radioactivity on the filters was determined using […] [Biochem. Pharmacol., 22, 3099-3108, 1973].

[2] = read-out: Ki apparent (nM) (units ± SEM); rat brain membranes, 2 nM [³H]-3-(+)-PPP, 1 hr at room temperature, displacing ligand 0.1-1000 nM

Sequence of sigma receptor (Q9R0C9 whole entry): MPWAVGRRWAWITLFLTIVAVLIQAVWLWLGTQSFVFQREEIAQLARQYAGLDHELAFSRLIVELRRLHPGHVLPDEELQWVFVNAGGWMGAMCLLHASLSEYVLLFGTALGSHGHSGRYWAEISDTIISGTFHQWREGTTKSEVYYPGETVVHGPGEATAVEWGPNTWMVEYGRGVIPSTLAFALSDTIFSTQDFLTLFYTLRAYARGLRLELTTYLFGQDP

Structure (SMILES): CN1CCN(CC2CC3c4ccccc4C2c2ccccc23)CC1 (stereo not drawn) [Compound No. 1, 4-[(9,10-Dihydro-9,10-ethanoanthracenyl)methyl]-1-methylpiperazine]
ED50 [1]: 1 mg/kg
Ki (sigma receptor; [2]): 120 ± 20 nM

Structure (SMILES): OCCN1CCN(CC2CC3c4ccccc4C2c2ccccc23)CC1 (stereo not drawn) [Compound No. 2, 4-[(9,10-dihydro-9,10-ethanoanthracenyl)methyl]-1-(2-hydroxyethyl)-piperazine]
ED50 [1]: 1 mg/kg
Ki (sigma receptor; [2]): 21 ± 6 nM

Structure (SMILES): c1cnc(N2CCN(CC3CC4c5ccccc5C3c3ccccc34)CC2)nc1 (stereo not drawn) [Compound No. 3, 4-[(9,10-Dihydro-9,10-ethanoanthracenyl)methyl]-1-(2-pyrimidyl)piperazine]
Ki (sigma receptor; [2]): > 1000 nM

Structure (SMILES): c1ccc2c(c1)C1CC(CN3CCN4CCCC4C3)C2c2ccccc21 (stereo not drawn) [Compound No. 4, 4-[(9,10-dihydro-9,10-ethanoanthracenyl)methyl]-1,4-diazabicyclo[4.3.0]nonane]
Ki (sigma receptor; [2]): 20 ± 3 nM

Ki (sigma receptor; rat brain membranes, 2 nM [³H]-3-(+)-PPP, 1 hr at room temperature, displacing ligand 0.1-1000 nM; read-out: Ki apparent (nM) (units ± SEM)): > 1000 nM
Structure (SMILES): CN1CCN(C(=O)C2CC3c4ccccc4C2c2ccccc23)CC1 (stereo not drawn) [Compound No. 5, reference compound]

Structure (SMILES): c1ccc(CN2CCN(CC3CC4c5ccccc5C3c3ccccc34)CC2)cc1 (stereo not drawn) [Compound No. 6, 4-[(9,10-Dihydro-9,10-ethanoanthracenyl)methyl]-1-benzylpiperazine]
ED50 [1]: 10 mg/kg
Ki (sigma receptor; [2]): 98 ± 18 nM
